# In the supplement of paper PMC10307832:
# Tests used:
# Assay in all cases: relative viability (nuclei count vs DMSO), 5 days (fraction); higher = more cells survive
# [1] = compound: C1=CC=C2C(=C1)N=C(S2)C(C#N)C3=NC(=NC=C3)NCCC4=CN=CC=C4 + O=C(c1cc(Cc2n[nH]c(=O)c3ccccc23)ccc1F)N1CCN(C(=O)C2CC2)CC1 [Olaparib] (partner 8 µM)
# Method in brief: (§1)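 Nuclei were stained with Hoechst during a one-step fixation (final 0.05% Triton X-100, 1% formaldehyde, 1 ug/ml Hoechst) carried out 5 days after dosing, then counted on 4× images. The cells, lung cancer lines in 1536-well plates, had been dosed by pin tool the day after seeding with one drug alone or a fixed anchor-drug dose plus five library-drug doses (not always all listed) in √10 steps. Relative viability is the nuclei count in treated wells divided by that in vehicle wells, and each value is the median of duplicate plates.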
# NVP-TAE684 + Foretinib = compound: COc1cc(N2CCC(N3CCN(C)CC3)CC2)ccc1Nc1ncc(Cl)c(Nc2ccccc2S(=O)(=O)C(C)C)n1 [NVP-TAE684] + COc1cc2c(Oc3ccc(NC(=O)C4(C(=O)Nc5ccc(F)cc5)CC4)cc3F)ccnc2cc1OCCCN1CCOCC1 [Foretinib] (partner 0.25 µM)
# Method in brief: as §1
# NVP-TAE684 + Pemetrexed = compound: COc1cc(N2CCC(N3CCN(C)CC3)CC2)ccc1Nc1ncc(Cl)c(Nc2ccccc2S(=O)(=O)C(C)C)n1 [NVP-TAE684] + Nc1nc2[nH]cc(CCc3ccc(C(=O)N[C@@H](CCC(=O)O)C(=O)O)cc3)c2c(=O)[nH]1 [Pemetrexed] (partner 0.2 µM)
# Method in brief: as §1
# CUDC-101 + Pemetrexed = compound: C#Cc1cccc(Nc2ncnc3cc(OC)c(OCCCCCCC(=O)NO)cc23)c1 [CUDC-101] + Nc1nc2[nH]cc(CCc3ccc(C(=O)N[C@@H](CCC(=O)O)C(=O)O)cc3)c2c(=O)[nH]1 [Pemetrexed] (partner 0.2 µM)
# Method in brief: as §1
# NVP-TAE684 + Luminespib = compound: COc1cc(N2CCC(N3CCN(C)CC3)CC2)ccc1Nc1ncc(Cl)c(Nc2ccccc2S(=O)(=O)C(C)C)n1 [NVP-TAE684] + CCNC(=O)c1noc(-c2cc(C(C)C)c(O)cc2O)c1-c1ccc(CN2CCOCC2)cc1 [Luminespib] (partner 0.01 µM)
# Method in brief: as §1
cell line,measurement,setting,value
EMC-BAC-2,relative viability,[1]; first compound 0.005 µM,0.512
same,relative viability,[1]; first compound 0.01581 µM,0.481
same,relative viability,[1]; first compound 0.05 µM,0.469
same,relative viability,[1]; first compound 0.1581 µM,0.476
same,relative viability,[1]; first compound 0.5 µM,0.427
same,relative viability,NVP-TAE684 + Foretinib; first compound 0.2 µM,0.958
same,relative viability,NVP-TAE684 + Foretinib; first compound 0.6325 µM,0.977
same,relative viability,NVP-TAE684 + Foretinib; first compound 2 µM,0.467
same,relative viability,NVP-TAE684 + Pemetrexed; first compound 0.2 µM,0.429
same,relative viability,NVP-TAE684 + Pemetrexed; first compound 0.6325 µM,0.405
same,relative viability,NVP-TAE684 + Pemetrexed; first compound 2 µM,0.433
same,relative viability,CUDC-101 + Pemetrexed; first compound 0.01 µM,0.464
same,relative viability,CUDC-101 + Pemetrexed; first compound 0.03162 µM,0.399
same,relative viability,CUDC-101 + Pemetrexed; first compound 0.1 µM,0.46
same,relative viability,CUDC-101 + Pemetrexed; first compound 0.3162 µM,0.394
same,relative viability,CUDC-101 + Pemetrexed; first compound 1 µM,0.354
same,relative viability,NVP-TAE684 + Luminespib; first compound 0.6325 µM,1.21
same,relative viability,NVP-TAE684 + Luminespib; first compound 2 µM,0.824
NCI-H1437,relative viability,[1]; first compound 0.005 µM,0.542
same,relative viability,[1]; first compound 0.01581 µM,0.607
same,relative viability,[1]; first compound 0.05 µM,0.65
same,relative viability,[1]; first compound 0.1581 µM,0.673
same,relative viability,[1]; first compound 0.5 µM,0.507
same,relative viability,NVP-TAE684 + Foretinib; first compound 0.2 µM,1.25
same,relative viability,NVP-TAE684 + Foretinib; first compound 0.6325 µM,1.27
same,relative viability,NVP-TAE684 + Foretinib; first compound 2 µM,1.29
same,relative viability,NVP-TAE684 + Pemetrexed; first compound 0.2 µM,0.354
same,relative viability,NVP-TAE684 + Pemetrexed; first compound 0.6325 µM,0.327
same,relative viability,NVP-TAE684 + Pemetrexed; first compound 2 µM,0.243
same,relative viability,CUDC-101 + Pemetrexed; first compound 0.01 µM,0.336
same,relative viability,CUDC-101 + Pemetrexed; first compound 0.03162 µM,0.306
same,relative viability,CUDC-101 + Pemetrexed; first compound 0.1 µM,0.337
same,relative viability,CUDC-101 + Pemetrexed; first compound 0.3162 µM,0.31
same,relative viability,CUDC-101 + Pemetrexed; first compound 1 µM,0.316
same,relative viability,NVP-TAE684 + Luminespib; first compound 0.2 µM,1.14
same,relative viability,NVP-TAE684 + Luminespib; first compound 0.6325 µM,1.13
same,relative viability,NVP-TAE684 + Luminespib; first compound 2 µM,1.08
NCI-H1944,relative viability,[1]; first compound 0.005 µM,0.358
same,relative viability,[1]; first compound 0.01581 µM,0.432
same,relative viability,[1]; first compound 0.05 µM,0.361
same,relative viability,[1]; first compound 0.1581 µM,0.41
same,relative viability,[1]; first compound 0.5 µM,0.619
same,relative viability,NVP-TAE684 + Foretinib; first compound 0.2 µM,0.847
same,relative viability,NVP-TAE684 + Foretinib; first compound 0.6325 µM,0.929
same,relative viability,NVP-TAE684 + Foretinib; first compound 2 µM,0.533
same,relative viability,NVP-TAE684 + Pemetrexed; first compound 0.2 µM,0.705
same,relative viability,NVP-TAE684 + Pemetrexed; first compound 0.6325 µM,0.585
same,relative viability,NVP-TAE684 + Pemetrexed; first compound 2 µM,0.631
same,relative viability,CUDC-101 + Pemetrexed; first compound 0.01 µM,0.62
same,relative viability,CUDC-101 + Pemetrexed; first compound 0.03162 µM,0.615
same,relative viability,CUDC-101 + Pemetrexed; first compound 0.1 µM,0.597
same,relative viability,CUDC-101 + Pemetrexed; first compound 0.3162 µM,0.582
same,relative viability,CUDC-101 + Pemetrexed; first compound 1 µM,0.43
same,relative viability,NVP-TAE684 + Luminespib; first compound 0.2 µM,0.667
same,relative viability,NVP-TAE684 + Luminespib; first compound 0.6325 µM,0.741
same,relative viability,NVP-TAE684 + Luminespib; first compound 2 µM,0.58
NCI-H838,relative viability,[1]; first compound 0.005 µM,0.622
same,relative viability,[1]; first compound 0.01581 µM,0.829
same,relative viability,[1]; first compound 0.05 µM,0.731
same,relative viability,[1]; first compound 0.1581 µM,0.773
same,relative viability,[1]; first compound 0.5 µM,0.546
same,relative viability,NVP-TAE684 + Foretinib; first compound 0.2 µM,0.971
same,relative viability,NVP-TAE684 + Foretinib; first compound 0.6325 µM,1.05
same,relative viability,NVP-TAE684 + Foretinib; first compound 2 µM,0.628
same,relative viability,NVP-TAE684 + Pemetrexed; first compound 0.2 µM,0.25
same,relative viability,NVP-TAE684 + Pemetrexed; first compound 0.6325 µM,0.239
same,relative viability,NVP-TAE684 + Pemetrexed; first compound 2 µM,0.17
same,relative viability,CUDC-101 + Pemetrexed; first compound 0.01 µM,0.332
same,relative viability,CUDC-101 + Pemetrexed; first compound 0.03162 µM,0.248
same,relative viability,CUDC-101 + Pemetrexed; first compound 0.1 µM,0.257
same,relative viability,CUDC-101 + Pemetrexed; first compound 0.3162 µM,0.26
same,relative viability,CUDC-101 + Pemetrexed; first compound 1 µM,0.198
same,relative viability,NVP-TAE684 + Luminespib; first compound 0.2 µM,0.27
same,relative viability,NVP-TAE684 + Luminespib; first compound 0.6325 µM,0.275
same,relative viability,NVP-TAE684 + Luminespib; first compound 2 µM,0.282
HCC-827,relative viability,[1]; first compound 0.005 µM,0.568
same,relative viability,[1]; first compound 0.01581 µM,0.616
same,relative viability,[1]; first compound 0.05 µM,0.728
same,relative viability,[1]; first compound 0.1581 µM,0.657
same,relative viability,[1]; first compound 0.5 µM,0.566
same,relative viability,NVP-TAE684 + Foretinib; first compound 0.2 µM,1.16
same,relative viability,NVP-TAE684 + Foretinib; first compound 0.6325 µM,1.02
same,relative viability,NVP-TAE684 + Foretinib; first compound 2 µM,0.874
same,relative viability,NVP-TAE684 + Pemetrexed; first compound 0.2 µM,0.259
same,relative viability,NVP-TAE684 + Pemetrexed; first compound 0.6325 µM,0.262
same,relative viability,NVP-TAE684 + Pemetrexed; first compound 2 µM,0.261
same,relative viability,CUDC-101 + Pemetrexed; first compound 0.01 µM,0.237
same,relative viability,CUDC-101 + Pemetrexed; first compound 0.03162 µM,0.241
same,relative viability,CUDC-101 + Pemetrexed; first compound 0.1 µM,0.163
same,relative viability,CUDC-101 + Pemetrexed; first compound 0.3162 µM,0.137
same,relative viability,CUDC-101 + Pemetrexed; first compound 1 µM,0.138
same,relative viability,NVP-TAE684 + Luminespib; first compound 0.2 µM,0.52
same,relative viability,NVP-TAE684 + Luminespib; first compound 0.6325 µM,0.613
same,relative viability,NVP-TAE684 + Luminespib; first compound 2 µM,0.65
NCI-H2342,relative viability,[1]; first compound 0.005 µM,0.536
same,relative viability,[1]; first compound 0.01581 µM,0.454
same,relative viability,[1]; first compound 0.05 µM,0.495
same,relative viability,[1]; first compound 0.1581 µM,0.442
same,relative viability,[1]; first compound 0.5 µM,0.45
same,relative viability,NVP-TAE684 + Foretinib; first compound 0.2 µM,1.07
same,relative viability,NVP-TAE684 + Foretinib; first compound 0.6325 µM,1.06
same,relative viability,NVP-TAE684 + Foretinib; first compound 2 µM,0.545
same,relative viability,NVP-TAE684 + Pemetrexed; first compound 0.2 µM,0.93
same,relative viability,NVP-TAE684 + Pemetrexed; first compound 0.6325 µM,0.771
same,relative viability,NVP-TAE684 + Pemetrexed; first compound 2 µM,0.493
same,relative viability,CUDC-101 + Pemetrexed; first compound 0.01 µM,0.842
same,relative viability,CUDC-101 + Pemetrexed; first compound 0.03162 µM,0.757
same,relative viability,CUDC-101 + Pemetrexed; first compound 0.1 µM,0.76
same,relative viability,CUDC-101 + Pemetrexed; first compound 0.3162 µM,0.819
same,relative viability,CUDC-101 + Pemetrexed; first compound 1 µM,0.742
same,relative viability,NVP-TAE684 + Luminespib; first compound 0.2 µM,0.742
same,relative viability,NVP-TAE684 + Luminespib; first compound 0.6325 µM,0.845
same,relative viability,NVP-TAE684 + Luminespib; first compound 2 µM,0.647
LOU-NH91,relative viability,[1]; first compound 0.005 µM,0.914
same,relative viability,[1]; first compound 0.01581 µM,0.914
same,relative viability,[1]; first compound 0.05 µM,0.826
same,relative viability,[1]; first compound 0.1581 µM,0.888
same,relative viability,[1]; first compound 0.5 µM,0.801
same,relative viability,NVP-TAE684 + Foretinib; first compound 0.2 µM,0.892
same,relative viability,NVP-TAE684 + Foretinib; first compound 0.6325 µM,0.92
same,relative viability,NVP-TAE684 + Foretinib; first compound 2 µM,0.801
same,relative viability,NVP-TAE684 + Pemetrexed; first compound 0.2 µM,0.364
same,relative viability,NVP-TAE684 + Pemetrexed; first compound 0.6325 µM,0.349
same,relative viability,NVP-TAE684 + Pemetrexed; first compound 2 µM,0.437
same,relative viability,CUDC-101 + Pemetrexed; first compound 0.01 µM,0.411
same,relative viability,CUDC-101 + Pemetrexed; first compound 0.03162 µM,0.414
same,relative viability,CUDC-101 + Pemetrexed; first compound 0.1 µM,0.421
same,relative viability,CUDC-101 + Pemetrexed; first compound 0.3162 µM,0.315
same,relative viability,CUDC-101 + Pemetrexed; first compound 1 µM,0.341
same,relative viability,NVP-TAE684 + Luminespib; first compound 0.2 µM,0.305
same,relative viability,NVP-TAE684 + Luminespib; first compound 0.6325 µM,0.339
same,relative viability,NVP-TAE684 + Luminespib; first compound 2 µM,0.296
NCI-H3122,relative viability,[1]; first compound 0.005 µM,0.671
same,relative viability,[1]; first compound 0.01581 µM,0.655
same,relative viability,[1]; first compound 0.05 µM,0.691
same,relative viability,[1]; first compound 0.1581 µM,0.788
same,relative viability,[1]; first compound 0.5 µM,0.885
same,relative viability,NVP-TAE684 + Foretinib; first compound 0.2 µM,0.218
same,relative viability,NVP-TAE684 + Foretinib; first compound 0.6325 µM,0.274
same,relative viability,NVP-TAE684 + Foretinib; first compound 2 µM,0.101
same,relative viability,NVP-TAE684 + Pemetrexed; first compound 0.2 µM,0.159
same,relative viability,NVP-TAE684 + Pemetrexed; first compound 0.6325 µM,0.117
same,relative viability,NVP-TAE684 + Pemetrexed; first compound 2 µM,0.114
same,relative viability,CUDC-101 + Pemetrexed; first compound 0.01 µM,0.19
same,relative viability,CUDC-101 + Pemetrexed; first compound 0.03162 µM,0.21
same,relative viability,CUDC-101 + Pemetrexed; first compound 0.1 µM,0.191
same,relative viability,CUDC-101 + Pemetrexed; first compound 0.3162 µM,0.209
same,relative viability,CUDC-101 + Pemetrexed; first compound 1 µM,0.22
same,relative viability,NVP-TAE684 + Luminespib; first compound 0.2 µM,0.0817
same,relative viability,NVP-TAE684 + Luminespib; first compound 0.6325 µM,0.0775
same,relative viability,NVP-TAE684 + Luminespib; first compound 2 µM,0.068
